For one assay, the system named is 454973-116-R2-J3-PDC spheroids, viability, % test/control. In words: Anticancer human tumor 454973-116-R2-J3-PDC patient-derived pancreatic carcinoma cell line growth inhibition [GQUAD]. Conditions: second compound 0.316 µM; first compound 1 µM; active compounds read low; spheroids with HUVEC and MSC. In outline: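 Tumor cells were grown as complex spheroids with HUVEC endothelial cells and mesenchymal stem cells as stroma. G-quadruplex stabilizers were combined with targeted agents over half-log dilutions from near the clinical Cmax, or from 10 microM.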
A word on the viability, T/C: it is the result in the treated group divided by that in the control group, in per cent. On to `CC1COCCN1c1cc(-c2ccnn2C)c2ccnc(-c3ccn[nH]3)c2n1` (configuration not stated) + Cc1cnc(CNC(=O)c2c(=O)c3ccc(N4CCCN(C)CC4)nc3n3c2sc2ccccc23)cn1, for which the viability, T/C was 16.8%.
On to `CC1COCCN1c1cc(C2(O)CC3CCC(C2)O3)c2cnn(-c3ccn[nH]3)c2n1` (configuration not stated) + Cc1cnc(CNC(=O)c2c(=O)c3ccc(N4CCCN(C)CC4)nc3n3c2sc2ccccc23)cn1, for which the viability, T/C was 22%.
The same measure, in the same setting: then `CC1COCCN1c1cc(C2(S(C)(=N)=O)CC2)nc(-c2ccnc3[nH]ccc23)n1` (configuration not stated) + Cc1cnc(CNC(=O)c2c(=O)c3ccc(N4CCCN(C)CC4)nc3n3c2sc2ccccc23)cn1, with 50.5%.
For `COc1ccc([C@@H](O)c2cc(-c3ncnc4cc(N5CCOCC5)ccc34)c(F)cc2Cl)nn1` + Cc1cnc(CNC(=O)c2c(=O)c3ccc(N4CCCN(C)CC4)nc3n3c2sc2ccccc23)cn1, the viability, T/C is 42%.

The same assay, now with this note: second compound 0.316 µM; first compound 3.16 µM; active compounds read low; spheroids with HUVEC and MSC.
Take `CC1COCCN1c1cc(-c2ccnn2C)c2ccnc(-c3ccn[nH]3)c2n1` (configuration not stated) + Cc1cnc(CNC(=O)c2c(=O)c3ccc(N4CCCN(C)CC4)nc3n3c2sc2ccccc23)cn1: the viability, T/C was 19.4%.
Turning to `CC1COCCN1c1cc(C2(O)CC3CCC(C2)O3)c2cnn(-c3ccn[nH]3)c2n1` (configuration not stated) + Cc1cnc(CNC(=O)c2c(=O)c3ccc(N4CCCN(C)CC4)nc3n3c2sc2ccccc23)cn1, the viability, T/C was 18.3%.
The same measure, in the same setting: the result for `CC1COCCN1c1cc(C2(S(C)(=N)=O)CC2)nc(-c2ccnc3[nH]ccc23)n1` (configuration not stated) + Cc1cnc(CNC(=O)c2c(=O)c3ccc(N4CCCN(C)CC4)nc3n3c2sc2ccccc23)cn1 reads 30.3%; that for `COc1ccc([C@@H](O)c2cc(-c3ncnc4cc(N5CCOCC5)ccc34)c(F)cc2Cl)nn1` + Cc1cnc(CNC(=O)c2c(=O)c3ccc(N4CCCN(C)CC4)nc3n3c2sc2ccccc23)cn1, 40.1%.

The same assay, now with this note: second compound 0.316 µM; first compound 10 µM; active compounds read low; spheroids with HUVEC and MSC.
As to `CC1COCCN1c1cc(-c2ccnn2C)c2ccnc(-c3ccn[nH]3)c2n1` (configuration not stated) + Cc1cnc(CNC(=O)c2c(=O)c3ccc(N4CCCN(C)CC4)nc3n3c2sc2ccccc23)cn1, the viability, T/C was 21.6%.
On the same count and under the same terms, the result for `CC1COCCN1c1cc(C2(O)CC3CCC(C2)O3)c2cnn(-c3ccn[nH]3)c2n1` (configuration not stated) + Cc1cnc(CNC(=O)c2c(=O)c3ccc(N4CCCN(C)CC4)nc3n3c2sc2ccccc23)cn1 reads 10.8%; that for `CC1COCCN1c1cc(C2(S(C)(=N)=O)CC2)nc(-c2ccnc3[nH]ccc23)n1` (configuration not stated) + Cc1cnc(CNC(=O)c2c(=O)c3ccc(N4CCCN(C)CC4)nc3n3c2sc2ccccc23)cn1, 27.8%; that for `COc1ccc([C@@H](O)c2cc(-c3ncnc4cc(N5CCOCC5)ccc34)c(F)cc2Cl)nn1` + Cc1cnc(CNC(=O)c2c(=O)c3ccc(N4CCCN(C)CC4)nc3n3c2sc2ccccc23)cn1, 30.8%.

Staying with this assay, now noted: second compound 1 µM; first compound 0.0316 µM; active compounds read low; spheroids with HUVEC and MSC.
Turning to `CC1COCCN1c1cc(-c2ccnn2C)c2ccnc(-c3ccn[nH]3)c2n1` (configuration not stated) + Cc1cnc(CNC(=O)c2c(=O)c3ccc(N4CCCN(C)CC4)nc3n3c2sc2ccccc23)cn1, the viability, T/C is 39.7%.
Turning to `CC1COCCN1c1cc(C2(O)CC3CCC(C2)O3)c2cnn(-c3ccn[nH]3)c2n1` (configuration not stated) + Cc1cnc(CNC(=O)c2c(=O)c3ccc(N4CCCN(C)CC4)nc3n3c2sc2ccccc23)cn1, the viability, T/C was 38.9%.
The same measure, in the same setting: the result for `CC1COCCN1c1cc(C2(S(C)(=N)=O)CC2)nc(-c2ccnc3[nH]ccc23)n1` (configuration not stated) + Cc1cnc(CNC(=O)c2c(=O)c3ccc(N4CCCN(C)CC4)nc3n3c2sc2ccccc23)cn1 reads 62.9%; that for `COc1ccc([C@@H](O)c2cc(-c3ncnc4cc(N5CCOCC5)ccc34)c(F)cc2Cl)nn1` + Cc1cnc(CNC(=O)c2c(=O)c3ccc(N4CCCN(C)CC4)nc3n3c2sc2ccccc23)cn1, 68.2%.

The assay is the same for the next values; noted with them: second compound 1 µM; first compound 0.1 µM; active compounds read low; spheroids with HUVEC and MSC.
Take `CC1COCCN1c1cc(-c2ccnn2C)c2ccnc(-c3ccn[nH]3)c2n1` (configuration not stated) + Cc1cnc(CNC(=O)c2c(=O)c3ccc(N4CCCN(C)CC4)nc3n3c2sc2ccccc23)cn1: the viability, T/C is 27.9%.
For the compound `CC1COCCN1c1cc(C2(O)CC3CCC(C2)O3)c2cnn(-c3ccn[nH]3)c2n1` (configuration not stated) + Cc1cnc(CNC(=O)c2c(=O)c3ccc(N4CCCN(C)CC4)nc3n3c2sc2ccccc23)cn1, the viability, T/C is 29.1%.
Still for that read-out and setting: then `CC1COCCN1c1cc(C2(S(C)(=N)=O)CC2)nc(-c2ccnc3[nH]ccc23)n1` (configuration not stated) + Cc1cnc(CNC(=O)c2c(=O)c3ccc(N4CCCN(C)CC4)nc3n3c2sc2ccccc23)cn1, with 67.2%.
The same measure, in the same setting: the result for `COc1ccc([C@@H](O)c2cc(-c3ncnc4cc(N5CCOCC5)ccc34)c(F)cc2Cl)nn1` + Cc1cnc(CNC(=O)c2c(=O)c3ccc(N4CCCN(C)CC4)nc3n3c2sc2ccccc23)cn1 reads 59.2%.

Still in this assay, the particulars now being: second compound 1 µM; first compound 0.316 µM; active compounds read low; spheroids with HUVEC and MSC.
For `CC1COCCN1c1cc(-c2ccnn2C)c2ccnc(-c3ccn[nH]3)c2n1` (configuration not stated) + Cc1cnc(CNC(=O)c2c(=O)c3ccc(N4CCCN(C)CC4)nc3n3c2sc2ccccc23)cn1, the viability, T/C is 27%.
Still for that read-out and setting: then `CC1COCCN1c1cc(C2(O)CC3CCC(C2)O3)c2cnn(-c3ccn[nH]3)c2n1` (configuration not stated) + Cc1cnc(CNC(=O)c2c(=O)c3ccc(N4CCCN(C)CC4)nc3n3c2sc2ccccc23)cn1, with 27.5%; and `CC1COCCN1c1cc(C2(S(C)(=N)=O)CC2)nc(-c2ccnc3[nH]ccc23)n1` (configuration not stated) + Cc1cnc(CNC(=O)c2c(=O)c3ccc(N4CCCN(C)CC4)nc3n3c2sc2ccccc23)cn1, with 70%.
The same measure, in the same setting: then `COc1ccc([C@@H](O)c2cc(-c3ncnc4cc(N5CCOCC5)ccc34)c(F)cc2Cl)nn1` + Cc1cnc(CNC(=O)c2c(=O)c3ccc(N4CCCN(C)CC4)nc3n3c2sc2ccccc23)cn1, with 55.1%.

The assay is the same for the next values; noted with them: second compound 1 µM; first compound 1 µM; active compounds read low; spheroids with HUVEC and MSC.
As to `CC1COCCN1c1cc(-c2ccnn2C)c2ccnc(-c3ccn[nH]3)c2n1` (configuration not stated) + Cc1cnc(CNC(=O)c2c(=O)c3ccc(N4CCCN(C)CC4)nc3n3c2sc2ccccc23)cn1, the viability, T/C is 24.2%.
On the same count and under the same terms, the result for `CC1COCCN1c1cc(C2(O)CC3CCC(C2)O3)c2cnn(-c3ccn[nH]3)c2n1` (configuration not stated) + Cc1cnc(CNC(=O)c2c(=O)c3ccc(N4CCCN(C)CC4)nc3n3c2sc2ccccc23)cn1 reads 23.8%; that for `CC1COCCN1c1cc(C2(S(C)(=N)=O)CC2)nc(-c2ccnc3[nH]ccc23)n1` (configuration not stated) + Cc1cnc(CNC(=O)c2c(=O)c3ccc(N4CCCN(C)CC4)nc3n3c2sc2ccccc23)cn1, 56.6%.
The same measure, in the same setting: the result for `COc1ccc([C@@H](O)c2cc(-c3ncnc4cc(N5CCOCC5)ccc34)c(F)cc2Cl)nn1` + Cc1cnc(CNC(=O)c2c(=O)c3ccc(N4CCCN(C)CC4)nc3n3c2sc2ccccc23)cn1 reads 43.7%.

The assay is the same for the next values; noted with them: second compound 1 µM; first compound 3.16 µM; active compounds read low; spheroids with HUVEC and MSC.
Turning to `CC1COCCN1c1cc(-c2ccnn2C)c2ccnc(-c3ccn[nH]3)c2n1` (configuration not stated) + Cc1cnc(CNC(=O)c2c(=O)c3ccc(N4CCCN(C)CC4)nc3n3c2sc2ccccc23)cn1, the viability, T/C is 22.6%.
In the case of `CC1COCCN1c1cc(C2(O)CC3CCC(C2)O3)c2cnn(-c3ccn[nH]3)c2n1` (configuration not stated) + Cc1cnc(CNC(=O)c2c(=O)c3ccc(N4CCCN(C)CC4)nc3n3c2sc2ccccc23)cn1, the viability, T/C was 20%.
Still for that read-out and setting: the result for `CC1COCCN1c1cc(C2(S(C)(=N)=O)CC2)nc(-c2ccnc3[nH]ccc23)n1` (configuration not stated) + Cc1cnc(CNC(=O)c2c(=O)c3ccc(N4CCCN(C)CC4)nc3n3c2sc2ccccc23)cn1 reads 36.1%; that for `COc1ccc([C@@H](O)c2cc(-c3ncnc4cc(N5CCOCC5)ccc34)c(F)cc2Cl)nn1` + Cc1cnc(CNC(=O)c2c(=O)c3ccc(N4CCCN(C)CC4)nc3n3c2sc2ccccc23)cn1, 39.8%.

Still in this assay, the particulars now being: second compound 1 µM; first compound 10 µM; active compounds read low; spheroids with HUVEC and MSC.
Consider `CC1COCCN1c1cc(-c2ccnn2C)c2ccnc(-c3ccn[nH]3)c2n1` (configuration not stated) + Cc1cnc(CNC(=O)c2c(=O)c3ccc(N4CCCN(C)CC4)nc3n3c2sc2ccccc23)cn1, for which the viability, T/C is 19.5%.
In the case of `CC1COCCN1c1cc(C2(O)CC3CCC(C2)O3)c2cnn(-c3ccn[nH]3)c2n1` (configuration not stated) + Cc1cnc(CNC(=O)c2c(=O)c3ccc(N4CCCN(C)CC4)nc3n3c2sc2ccccc23)cn1, the viability, T/C was 11.7%.
Still for that read-out and setting: the result for `CC1COCCN1c1cc(C2(S(C)(=N)=O)CC2)nc(-c2ccnc3[nH]ccc23)n1` (configuration not stated) + Cc1cnc(CNC(=O)c2c(=O)c3ccc(N4CCCN(C)CC4)nc3n3c2sc2ccccc23)cn1 reads 38%; that for `COc1ccc([C@@H](O)c2cc(-c3ncnc4cc(N5CCOCC5)ccc34)c(F)cc2Cl)nn1` + Cc1cnc(CNC(=O)c2c(=O)c3ccc(N4CCCN(C)CC4)nc3n3c2sc2ccccc23)cn1, 28.4%.

Staying with this assay, now noted: second compound 3.16 µM; first compound 0.0316 µM; active compounds read low; spheroids with HUVEC and MSC.
Turning to `CC1COCCN1c1cc(-c2ccnn2C)c2ccnc(-c3ccn[nH]3)c2n1` (configuration not stated) + Cc1cnc(CNC(=O)c2c(=O)c3ccc(N4CCCN(C)CC4)nc3n3c2sc2ccccc23)cn1, the viability, T/C is 40.3%.
Still for that read-out and setting: the result for `CC1COCCN1c1cc(C2(O)CC3CCC(C2)O3)c2cnn(-c3ccn[nH]3)c2n1` (configuration not stated) + Cc1cnc(CNC(=O)c2c(=O)c3ccc(N4CCCN(C)CC4)nc3n3c2sc2ccccc23)cn1 reads 37.9%.
As for `CC1COCCN1c1cc(C2(S(C)(=N)=O)CC2)nc(-c2ccnc3[nH]ccc23)n1` (configuration not stated) + Cc1cnc(CNC(=O)c2c(=O)c3ccc(N4CCCN(C)CC4)nc3n3c2sc2ccccc23)cn1, the viability, T/C was 65.9%.
The same measure, in the same setting: then `COc1ccc([C@@H](O)c2cc(-c3ncnc4cc(N5CCOCC5)ccc34)c(F)cc2Cl)nn1` + Cc1cnc(CNC(=O)c2c(=O)c3ccc(N4CCCN(C)CC4)nc3n3c2sc2ccccc23)cn1, with 69%.

The same assay, now with this note: second compound 3.16 µM; first compound 0.1 µM; active compounds read low; spheroids with HUVEC and MSC.
For the compound `CC1COCCN1c1cc(-c2ccnn2C)c2ccnc(-c3ccn[nH]3)c2n1` (configuration not stated) + Cc1cnc(CNC(=O)c2c(=O)c3ccc(N4CCCN(C)CC4)nc3n3c2sc2ccccc23)cn1, the viability, T/C was 34.5%.
On the same count and under the same terms, the result for `CC1COCCN1c1cc(C2(O)CC3CCC(C2)O3)c2cnn(-c3ccn[nH]3)c2n1` (configuration not stated) + Cc1cnc(CNC(=O)c2c(=O)c3ccc(N4CCCN(C)CC4)nc3n3c2sc2ccccc23)cn1 reads 32.3%.

For the origin of these results see PubChem BioAssay AID2060508 (Molecular Pharmacology Branch, DTP, NCI, 2025).
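Note: spheroids exposed to compounds for seven days; 100% = DMSO vehicle control viability.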
